Data: patent publication US9237747B2, “Herbicidal compositions comprising 4-amino-3-chloro-5-fluoro-6-(4-chloro-2-fluoro-3-methoxyphenyl) pyridine-2-carboxylic acid or a derivative thereof and insecticides” (priority 2013, dated 2016)
“And” between values parts separate entries of the source, which are not always exact repeats. Identical values can stand only once. Like-named read-outs stand apart in the source and are kept apart here.

Tests used:
[1] = system: DIGSA; format: in vivo, Digitaria sanguinalis
Summary of the method: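 Foliar spray, 187 L/ha, track sprayer; 1.25% v/v COC, 8.1% acetone, 0.25% DMSO in spray. Plants at 1st–4th true leaf, greenhouse 29/26 °C. Visual injury 0–100% (0 = none, 100 = complete kill) at ~3 wk after treatment; expected mixture response by Colby.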

[2] = system: CYPRO; experiment: In-water applied weed control, transplanted paddy rice (greenhouse); format: in vivo, Cyperus rotundus
Description: Weed seeds or nutlets of the desired test plant species were planted in puddled soil (mud) prepared by mixing a shredded, non-sterilized mineral soil (50.5 percent silt, 25.5 percent clay, and 24 percent sand, with a pH of about 7.6 and an organic matter content of about 2.9 percent) and water at a 1:1 volumetric ratio. The prepared mud was dispensed in 365 mL aliquots into 16-ounce (oz.) non-perforated plastic pots with a surface area of 86.59 square centimeters (cm^2) leaving a headspace of 3 centimeters (cm) in each pot. Rice seeds were planted in Sun Gro MetroMix® 306 planting mixture, which typically has a pH of 6.0 to 6.8 and an organic matter content of about 30 percent, in plastic plug trays. Seedlings at the second or third leaf stage of growth were transplanted into 860 mL of mud contained in 32-oz. non-perforated plastic pots with a surface area of 86.59 cm^2 4 days prior to herbicide application. The paddy was created by filling the headspace of the pots with 2.5 to 3 cm of water. When required to ensure good germination and healthy plants, a fungicide treatment and/or other chemical or physical treatment was applied. The plants were grown for 4-22 days in a greenhouse with an approximate 14 h photoperiod which was maintained at about 29° C. during the day and about 26° C. during the night. Nutrients were added as Osmocote® (17:6:10, N:P:K+minor nutrients) at 2 grams (g) per 16-oz. pot and 4 g per 32-oz. pot. Water was added on a regular basis to maintain the paddy flood, and supplemental lighting was provided with overhead metal halide 1000-Watt lamps as necessary. The plants were employed for testing when they reached the first through fourth true leaf stage.
Treatments consisted of the acid or esters of 4-amino-3-chloro-5-fluoro-6-(4-chloro-2-fluoro-3-methoxy-phenyl)pyridine-2-carboxylic acid (compound A) each formulated as an SC (suspension concentrate) and various herbicidal components alone and in combination. Forms of compound A were applied on an acid equivalent basis.
Other […] components were applied on an active ingredient basis and consisted of etofenprox (technical grade material) and sulfoxaflor formulated as Sulfoxaflor WG.
Treatment requirements for each compound or herbicidal component were calculated based upon the rates being tested, the concentration of active ingredient or acid equivalent in the formulation, an application volume of 2 mL per component per pot, and an application area of 86.59 cm^2 per pot.
For formulated compounds, a measured amount was placed in an individual 100 or 200 mL glass vial and was dissolved in a volume of 1.25% (v/v) AgriDex® crop oil concentrate to obtain application solutions.
For technical grade compounds, a weighed amount was placed in an individual 100 to 200 mL glass vial and was dissolved in a volume of acetone to obtain concentrated stock solutions.
Applications were made by injecting with a pipetter appropriate amounts of the application solutions, individually and sequentially, into the aqueous layer of the paddy. Control plants were treated in the same manner with the solvent blank. Applications were made so that all treated plant material received the same concentrations of acetone and crop oil concentrate.
The treated plants and control plants were placed in a greenhouse as described above and water was added as needed to maintain a paddy flood. After approximately 3 weeks the condition of the test plants as compared with that of the untreated plants was determined visually and scored on a scale of 0 to 100 percent where 0 corresponds to no injury or growth inhibition and 100 corresponds to complete kill.
Colby's equation was used to determine the herbicidal effects expected from the mixtures (Colby, S. R. Calculation of the synergistic and antagonistic response of herbicide combinations. Weeds 1967, 15, 20-22.). […]

**Q.** How did the “Visual Weed Control (%) - 20 DAA DIGSA Obs” value ([1]; 4.38 g ae/ha alone) turn out when `COc1c(Cl)ccc(-c2nc(C(=O)O)c(Cl)c(N)c2F)c1F` [Compound A Acid, 4-amino-3-chloro-6-(4-chloro-2-fluoro-3-methoxyphenyl)-5-fluoropyridine-2-carboxylic acid] was run?
**A.** 40%

**Q.** What about the “Visual Weed Control (%) - 20 DAA DIGSA Obs” value ([1]; 5.3 g ae/ha alone) of the same molecule?
**A.** 15%

**Q.** What about the “Visual Weed Control (%) - 20 DAA DIGSA Obs” value ([1]; 10.6 g ae/ha alone) of the same molecule?
**A.** 35%

**Q.** And the “Visual Weed Control (%) - 20 DAA DIGSA Obs” value ([1]; 21.2 g ae/ha alone)?
**A.** 50%

**Q.** How did the “Visual Weed Control (%) - 19 DAA CYPRO Obs” value ([2]; 8 g ae/ha alone) turn out when `COc1c(Cl)ccc(-c2nc(C(=O)OCc3ccccc3)c(Cl)c(N)c2F)c1F` [Compound A Benzyl Ester] was run?
**A.** 20%

**Q.** And the “Visual Weed Control (%) - 19 DAA CYPRO Obs” value ([2]; 16 g ae/ha alone)?
**A.** 88%

**Q.** What about the “Visual Weed Control (%) - 19 DAA CYPRO Obs” value ([2]; 32 g ae/ha alone) of the same molecule?
**A.** 87%

**Q.** What about the “Visual Weed Control (%) - 21 DAA CYPRO Obs” value ([2]; 21 DAA, 8 g ae/ha alone) of the same molecule?
**A.** 40%

**Q.** What about the “Visual Weed Control (%) - 20 DAA DIGSA Obs” value ([1]; 4.38 g ae/ha alone) of the same molecule?
**A.** 40% and 25%

**Q.** What about the “Visual Weed Control (%) - 20 DAA DIGSA Obs” value ([1]; 8 g ae/ha alone) of the same molecule?
**A.** 20%

**Q.** And the “Visual Weed Control (%) - 21 DAA DIGSA Obs” value ([1]; 8 g ae/ha alone)?
**A.** 10%

**Q.** And the “Visual Weed Control (%) - 22 DAA DIGSA Obs” value ([1]; 8 g ae/ha alone)?
**A.** 13%

**Q.** And the “Visual Weed Control (%) - 20 DAA DIGSA Obs” value ([1]; 16 g ae/ha alone)?
**A.** 23% and 30%

**Q.** What about the “Visual Weed Control (%) - 22 DAA DIGSA Obs” value ([1]; 16 g ae/ha alone) of the same molecule?
**A.** 18%

**Q.** And the “Visual Weed Control (%) - 20 DAA DIGSA Obs” value ([1]; 17.5 g ae/ha alone)?
**A.** 15%

**Q.** What about the “Visual Weed Control (%) - 19 DAA DIGSA Obs” value ([1]; 8 g ae/ha alone) of the same molecule?
**A.** 30%

**Q.** And the “Visual Weed Control (%) - 19 DAA DIGSA Obs” value ([1]; 16 g ae/ha alone)?
**A.** 35%

**Q.** What about the “Visual Weed Control (%) - 19 DAA DIGSA Obs” value ([1]; 32 g ae/ha alone) of the same molecule?
**A.** 40%

**Q.** And the “Visual Weed Control (%) - 22 DAA DIGSA Obs” value ([1]; 22 DAA, 8 g ae/ha alone)?
**A.** 10% and 13%

**Q.** What about the “Visual Weed Control (%) - 22 DAA DIGSA Obs” value ([1]; 22 DAA, 8 g ae/ha alone, second part of Table 18) of the same molecule?
**A.** 13%

**Q.** And the “Visual Weed Control (%) - 22 DAA DIGSA Obs” value ([1]; 22 DAA, 16 g ae/ha alone)?
**A.** 25% and 18% and 20%

**Q.** And the “Visual Weed Control (%) - 22 DAA DIGSA Obs” value ([1]; 22 DAA, 16 g ae/ha alone, second part of Table 18)?
**A.** 18%

**Q.** What about the “Visual Weed Control (%) - 22 DAA DIGSA Obs” value ([1]; 22 DAA, 32 g ae/ha alone) of the same molecule?
**A.** 40% and 28% and 25%

**Q.** What about the “Visual Weed Control (%) - 22 DAA DIGSA Obs” value ([1]; 22 DAA, 32 g ae/ha alone, second part of Table 18) of the same molecule?
**A.** 28%

**Q.** What about the “Visual Weed Control (%) - 20 DAA DIGSA Obs” value ([1]; 32 g ae/ha alone) of the same molecule?
**A.** 30% and 40%

**Q.** And the “Visual Weed Control (%) - 22 DAA DIGSA Obs” value ([1]; 32 g ae/ha alone)?
**A.** 28%

**Q.** Which results are given for `CC(c1ccc(C(F)(F)F)nc1)S(C)(=O)=NC#N` (centres unmarked) [Sulfoxaflor, N-[methyloxido[1-[6-(trifluoromethyl)-3-pyridinyl]ethyl]-λ^4-sulfanylidene]cyanamide]?
**A.** Visual Weed Control (%) - 19 DAA CYPRO Obs ([2]; 37.5 g ai/ha alone): 0%; Visual Weed Control (%) - 19 DAA CYPRO Obs ([2]; 75 g ai/ha alone): 0%; Visual Weed Control (%) - 19 DAA CYPRO Obs ([2]; 150 g ai/ha alone): 0%
